Key:
[1] = molecular target: T1, Bifunctional 3'-5' exonuclease/ATP-dependent helicase WRN [480-1251] (UniProt Q14191); experiment: Biochemical Activity Assays
T1 construct: 480-1251

[2] = molecular target: Bifunctional 3'-5' exonuclease/ATP-dependent helicase WRN (Homo sapiens, UniProt Q14191); experiment: ADP-Glo Kinase Assay
Description: ATPase activity was measured using the ADP-Glo Kinase Assay following the manufacturers recommended protocol.

Bifunctional 3'-5' exonuclease/ATP-dependent helicase WRN, sequence (Q14191 whole entry): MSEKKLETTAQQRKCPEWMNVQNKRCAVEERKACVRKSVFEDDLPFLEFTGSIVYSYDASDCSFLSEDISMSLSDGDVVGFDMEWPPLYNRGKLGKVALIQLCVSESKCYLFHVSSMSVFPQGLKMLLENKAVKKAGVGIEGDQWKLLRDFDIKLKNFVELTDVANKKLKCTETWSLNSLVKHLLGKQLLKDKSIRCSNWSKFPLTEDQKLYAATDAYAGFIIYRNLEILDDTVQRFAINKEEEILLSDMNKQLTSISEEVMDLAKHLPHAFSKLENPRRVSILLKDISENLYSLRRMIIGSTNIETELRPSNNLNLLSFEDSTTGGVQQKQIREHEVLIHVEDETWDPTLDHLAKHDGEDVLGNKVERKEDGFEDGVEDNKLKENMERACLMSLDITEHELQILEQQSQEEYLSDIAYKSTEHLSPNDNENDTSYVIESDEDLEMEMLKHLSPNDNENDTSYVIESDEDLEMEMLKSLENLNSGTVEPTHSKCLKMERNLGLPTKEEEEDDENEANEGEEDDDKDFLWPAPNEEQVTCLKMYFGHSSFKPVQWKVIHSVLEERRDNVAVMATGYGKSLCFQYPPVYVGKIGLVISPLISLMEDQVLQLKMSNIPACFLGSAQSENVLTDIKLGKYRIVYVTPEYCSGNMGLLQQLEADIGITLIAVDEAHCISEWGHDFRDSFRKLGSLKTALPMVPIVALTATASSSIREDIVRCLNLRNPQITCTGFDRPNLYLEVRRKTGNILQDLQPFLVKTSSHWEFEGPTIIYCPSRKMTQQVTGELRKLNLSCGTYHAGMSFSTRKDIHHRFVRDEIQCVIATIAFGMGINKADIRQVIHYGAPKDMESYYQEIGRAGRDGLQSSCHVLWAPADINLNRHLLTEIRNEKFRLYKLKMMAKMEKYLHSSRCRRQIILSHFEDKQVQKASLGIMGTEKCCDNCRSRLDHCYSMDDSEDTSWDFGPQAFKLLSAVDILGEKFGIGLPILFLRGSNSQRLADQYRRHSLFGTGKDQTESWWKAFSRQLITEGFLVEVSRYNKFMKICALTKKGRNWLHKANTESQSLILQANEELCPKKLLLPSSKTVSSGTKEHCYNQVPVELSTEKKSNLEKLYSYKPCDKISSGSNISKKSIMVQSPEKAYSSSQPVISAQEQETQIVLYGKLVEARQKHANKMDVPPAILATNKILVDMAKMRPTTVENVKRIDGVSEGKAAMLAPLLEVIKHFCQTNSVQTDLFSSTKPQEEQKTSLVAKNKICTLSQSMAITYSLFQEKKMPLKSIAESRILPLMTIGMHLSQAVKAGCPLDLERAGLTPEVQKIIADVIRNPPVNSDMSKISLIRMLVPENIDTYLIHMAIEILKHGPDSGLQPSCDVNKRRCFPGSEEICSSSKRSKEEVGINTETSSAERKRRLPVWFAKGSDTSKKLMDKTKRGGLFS
T1 sequence (Q14191 480-1251): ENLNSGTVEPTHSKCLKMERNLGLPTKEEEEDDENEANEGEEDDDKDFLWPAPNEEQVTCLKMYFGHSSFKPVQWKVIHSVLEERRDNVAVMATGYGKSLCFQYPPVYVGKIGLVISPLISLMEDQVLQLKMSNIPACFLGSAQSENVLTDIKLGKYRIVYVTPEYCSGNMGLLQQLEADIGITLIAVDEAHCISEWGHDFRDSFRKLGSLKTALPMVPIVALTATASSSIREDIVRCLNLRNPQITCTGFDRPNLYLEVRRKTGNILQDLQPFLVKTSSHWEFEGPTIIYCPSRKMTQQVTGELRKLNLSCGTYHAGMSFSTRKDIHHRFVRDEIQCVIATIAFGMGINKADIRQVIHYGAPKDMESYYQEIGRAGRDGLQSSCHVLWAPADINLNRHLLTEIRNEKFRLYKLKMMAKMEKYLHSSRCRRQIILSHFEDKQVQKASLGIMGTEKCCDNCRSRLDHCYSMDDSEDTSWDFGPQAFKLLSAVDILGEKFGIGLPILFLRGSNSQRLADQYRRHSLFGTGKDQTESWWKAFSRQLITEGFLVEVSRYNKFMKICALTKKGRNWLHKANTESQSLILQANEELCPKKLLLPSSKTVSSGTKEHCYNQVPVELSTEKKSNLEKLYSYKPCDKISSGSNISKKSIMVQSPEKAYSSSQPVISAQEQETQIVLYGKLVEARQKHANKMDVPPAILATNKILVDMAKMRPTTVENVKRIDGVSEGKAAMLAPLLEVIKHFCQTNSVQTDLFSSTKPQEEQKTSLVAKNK

Row | Compound | IC50 [1] [nM] | IC50 [2] [nM]
1 | C=C(c1ccc(NC(=O)Cn2c(CC)c(N3CCN(C(=O)c4ncnc(C)c4O)CC3)c(=O)n3nc(-c4ccc5c(c4)COC5)nc23)c(Cl)c1)C(F)(F)F [WO2025049746, Example 419] | 39 | 54
2 | CCc1c(N2CCN(C(=O)c3ncnc(C)c3O)CC2)c(=O)n2nc(-c3ccc4c(c3)COC4)nc2n1CC(=O)Nc1ccc(C2(C(F)(F)F)CC2)cc1Cl [WO2025049746, Example 420] | 65 | 100
3 | CCc1c(N2CCN(C(=O)c3ncnc(C)c3O)CC2)c(=O)n2nc(-c3ccc4c(c3)COC4)nc2n1CC(=O)Nc1ccc(C=C(F)F)cc1Cl [WO2025049746, Example 421] | 25 | 30
4 | CCc1c(N2CCN(C(=O)c3nc4n(c(=O)c3O)CCC4)CC2)c(=O)n2nc(-c3ccc4c(c3)COC4)nc2n1CC(=O)Nc1ccc(C(F)(F)F)cc1Cl [WO2025049746, Example 422] | 38 | 47
5 | CCc1c(N2CCN(C(=O)c3nc4c(cc3O)CCCC4)CC2)c(=O)n2nc(-c3ccc4c(c3)COC4)nc2n1CC(=O)Nc1ccc(C(F)(F)F)cc1Cl [WO2025049746, Example 423] | 150 | 169
6 | CCc1c(N2CCN(C(=O)c3ncnc(C)c3O)CC2)c(=O)n2nc(-c3ccc4c(c3)COC4)nc2n1CC(=O)Nc1c(Cl)cc(C(F)(F)F)c2scnc12 [WO2025049746, Example 424] | 37 | 47
7 | CCc1c(N2CCN(C(=O)c3cccc4c3NS(=O)(=O)CC4)CC2)c(=O)n2nc(-c3ccc4c(c3)COC4)nc2n1CC(=O)Nc1ccc(C(F)(F)F)cc1Cl [WO2025049746, Example 425] | 27 | 34
8 | CCc1c(N2CCN(C(=O)c3cccc4c3NS(=O)(=O)C=C4)CC2)c(=O)n2nc(-c3ccc4c(c3)COC4)nc2n1CC(=O)Nc1ccc(C(F)(F)F)cc1Cl [WO2025049746, Example 426] | 25 | 34
9 | CCc1c(N2CCN(C(=O)c3nc4n(c(=O)c3O)CCCC4)CC2)c(=O)n2nc(-c3ccc4c(c3)COC4)nc2n1CC(=O)Nc1ccc(C(F)(F)F)cc1Cl [WO2025049746, Example 427] | 19 | 19
10 | CCc1c(N2CCN(C(=O)c3ncnc(C)c3O)CC2)c(=O)n2nc(-c3ccc4c(c3)CCO4)nc2n1CC(=O)Nc1c(Cl)cc(C(F)(F)F)c2scnc12 [WO2025049746, Example 428] | 38 | 45
11 | CCc1c(N2CCN(C(=O)c3cc4nnn(C)c4cc3OC)CC2)c(=O)n2nc(-c3ccc4c(c3)COC4)nc2n1CC(=O)Nc1ccc(C(F)(F)F)cc1Cl [WO2025049746, Example 429] | 94 | 118
12 | CCc1c(N2CCN(C(=O)C3=CCOCC3)CC2)c(=O)n2nc(-c3ccnc(O)n3)nc2n1CC(=O)Nc1ccc(C(F)(F)F)cc1Cl [WO2025049746, Example 430] | 373 | 550
13 | CCc1c(N2CCN(C(=O)c3nc4c(cc3O)OCCC4)CC2)c(=O)n2nc(-c3ccc4c(c3)COC4)nc2n1CC(=O)Nc1ccc(C(F)(F)F)cc1Cl [WO2025049746, Example 432] | 75 | 88
14 | CCc1c(N2CCN(C(=O)c3cc4nnn(C)c4cc3O)CC2)c(=O)n2nc(-c3ccc4c(c3)COC4)nc2n1CC(=O)Nc1ccc(C(F)(F)F)cc1Cl [WO2025049746, Example 433] | 109 | 138
15 | CCc1c(N2CCN(C(C)=O)CC2)c(=O)n2nc(-c3ncc(O)cn3)nc2n1CC(=O)Nc1ccc(C(F)(F)F)cc1Cl [WO2025049746, Example 434] | 102 | 577
16 | CCc1c(N2CCN(C(=O)c3nc4c(cc3O)OCC4)CC2)c(=O)n2nc(-c3ccc4c(c3)COC4)nc2n1CC(=O)Nc1ccc(C(F)(F)F)cc1Cl [WO2025049746, Example 435] | 50 | 61

Row | Compound | IC50 [1] [nM] | IC50 [2] [nM]
17 | CCc1c(N2CCN(C(=O)C3=CCOCC3)CC2)c(=O)n2nc(-c3ncc(O)cn3)nc2n1CC(=O)Nc1ccc(C(F)(F)F)cc1Cl [WO2025049746, Example 436] | 50 | 103
18 | CCc1c(N2CC[C@@H]3[C@@H]2CCCN3C(=O)c2ncnc(C)c2O)c(=O)n2nc(-c3ccc4c(c3)COC4)nc2n1CC(=O)Nc1ccc(C(F)(F)F)cc1Cl [WO2025049746, Example 438] | 28 | 25
19 | CCc1c(N2CCN(C(=O)c3nocc3O)CC2)c(=O)n2nc(-c3ccc4c(c3)COC4)nc2n1CC(=O)Nc1ccc(C(F)(F)F)cc1Cl [WO2025049746, Example 439] | 53 | 50
20 | CCc1c(N2CCN(C(=O)c3nc4c(cc3O)COCC4)CC2)c(=O)n2nc(-c3ccc4c(c3)COC4)nc2n1CC(=O)Nc1ccc(C(F)(F)F)cc1Cl [WO2025049746, Example 440] | 48 | 46
21 | CCc1c(N2CCN(C(=O)c3nc4c(cc3O)CCOC4)CC2)c(=O)n2nc(-c3ccc4c(c3)COC4)nc2n1CC(=O)Nc1ccc(C(F)(F)F)cc1Cl [WO2025049746, Example 441] | 57 | 68
22 | CCc1c(N2CCN(C(=O)c3ncnc(C)c3O)CC2)c(=O)n2nc(-c3ccc4c(c3)COC4)nc2n1CC(=O)Nc1c(Cl)cc(C(F)(F)F)c2c1OCC2 [WO2025049746, Example 442] | 67 | 54
23 | CCc1c(N2CCN(C(=O)c3nsc(N4CCN(C)CC4)c3O)CC2)c(=O)n2nc(-c3ccc4c(c3)COC4)nc2n1CC(=O)Nc1ccc(C(F)(F)F)cc1Cl [WO2025049746, Example 443] | 65 | 65
24 | CCc1c(N2CCN(C(=O)c3ncnc4cc[nH]c34)CC2)c(=O)n2nc(-c3ccc4c(c3)COC4)nc2n1CC(=O)Nc1ccc(C(F)(F)F)cc1Cl [WO2025049746, Example 444] | 40 | 44
25 | CCc1c(N2CCN(C(=O)c3nsc(N4CCOCC4)c3O)CC2)c(=O)n2nc(-c3ccc4c(c3)COC4)nc2n1CC(=O)Nc1ccc(C(F)(F)F)cc1Cl [WO2025049746, Example 445] | 70 | 72
26 | CCc1c(N2CCN(C(=O)c3nocc3O)CC2)c(=O)n2nc(-c3ccc4c(c3)COC4)nc2n1CC(=O)Nc1ccc(C(F)(F)F)cc1Cl [WO2025049746, Example 446] | 20 | 20
27 | CCc1c(N2CCN(C(=O)c3ncnc(C)c3O)CC2)c(=O)n2nc(-c3ccc4c(c3)COC4)nc2n1CC(=O)Nc1c(Cl)cc(C(F)(F)F)c2ccoc12 [WO2025049746, Example 447] | 38 | 38
28 | CCc1c(N2CCN(C(=O)c3nsc(-c4ccncc4)c3O)CC2)c(=O)n2nc(-c3ccc4c(c3)COC4)nc2n1CC(=O)Nc1ccc(C(F)(F)F)cc1Cl [WO2025049746, Example 448] | 42 | 49
29 | CCc1c(N2CCN(C(=O)c3c(C#N)cnc(C)c3O)CC2)c(=O)n2nc(-c3ccc4c(c3)COC4)nc2n1CC(=O)Nc1ccc(C(F)(F)F)cc1Cl [WO2025049746, Example 449] | 45 | 40
30 | CCc1c(N2CCN(C(=O)c3cc(N4CCN(C)CC4)nc(C)c3O)CC2)c(=O)n2nc(-c3ccc4c(c3)COC4)nc2n1CC(=O)Nc1ccc(C(F)(F)F)cc1Cl [WO2025049746, Example 450] | 103 | 108
31 | CCc1c(N2CCN(C(=O)c3ncnc(C)c3O)CC2)c(=O)n2c(C)c(-c3ccc4c(c3)COC4)nc2n1CC(=O)Nc1ccc(C(F)(F)F)cc1Cl [WO2025049746, Example 451] | 6910 | 6940

— BindingDB's records for patent WO2025049746 (Eikon Therapeutics, 2025)
